A short description of one series: Metabolic stability and intrinsic clearance in human liver microsomes (MICS). The following applies: human, microsomes, pH 7.4. The class given is in vitro ADME. The procedure:
Metabolic Stability and Intrinsic Clearance in Liver Microsomes (MICS)
One objective of this assay is to measure in vitro metabolic stability of a test compound in liver microsomes of one or more different species. The concentration of a control compound in the reaction system is evaluated by LC/MS/MS for calculating intrinsic clearance of a test compound and estimating the stability of the control compound and test compound in liver microsomes of one or more different species.
Microsomes (MICS). Human Liver Microsomes (HLM), Monkey Liver Microsomes (MKLM), Dog Liver Microsomes (DLM), Rat Liver Microsomes (RLM), and Mouse Liver Microsomes (MLM) are obtained at a concentration of 20 mg/mL protein from commercial sources and stored in a −80° C. freezer. Prior to use, liver microsomes are removed from the freezer and allowed to thaw in a 37° C. water bath and then stored on wet ice.
Stock Solutions. Test Compound (TC) Stock Solutions are prepared in DMSO at a concentration of 10 mM and stored for later use. Positive Control (PC) Stock Solutions of verapamil·HCL (FW: 491.1 g/mol) in DMSO are prepared at a concentration of 10 mM (4.91 mg/mL), and stored at the condition same as the stock solutions of test compounds.
Phosphate Buffer. Phosphate Buffer (100 mM, pH 7.4) is prepared by combining a Solution A and a Solution B as follows.
To prepare Solution A, 7.098 g of disodium hydrogen phosphate was combined with 500 mL of pure water and sonicated to dissolve. To prepare the Solution B, 3.400 g of potassium dihydrogen phosphate was combined with 250 mL of pure water and sonicated to dissolve. Solution A was placed on a stirrer and Solution B was slowly added into Solution A until the pH reached 7.4.
NADPH Solution. A 10 mM NADPH Solution is prepared by dissolving NADPH (MW: 833.4 g/mol) at 8.334 mg/mL in phosphate buffer (100 mM, pH 7.4).
Microsome Master Solution. A Microsome Master Solution is prepared by adding 6.25 μL microsomes (20 mg/mL) to 216.25 μL Phosphate Buffer (100 mM). The final concentration is Phosphate Buffer (100 mM); microsomes (0.5 mg/mL).
Dilution of Stock Solutions. The TC Stock Solutions (10 mM in DMSO) and the PC Stock Solutions (10 mM in DMSO) are diluted by adding 3 μL of the TC Stock Solution or the PC Stock Solution to 297 μL of 50% acetonitrile/50% water.
Incubation. Two separated experiments were performed as follows. a) With Cofactors (NADPH): 25 μL of 10 mM NADPH was added to the incubations. The final concentrations of
microsomes and NADPH were 0.5 mg/mL and 1 mM, respectively. b) Without Cofactors (NADPH): 25 μL of 100 mM Phosphate buffer was added to the incubations. The final concentration of microsomes was 0.5 mg/mL. The mixture was pre-warmed at 37° C. for 10 minutes.
The reaction was started with the addition of 2.5 μL of 100 μM PC solution or TC solutions.
Verapamil was used as PC in this study. The final concentration of test compound or control compound was 1 μM. The incubation solution was incubated in water batch at 37° C.
Reaction Termination. Aliquots of 30 μL were taken from the reaction solution at 0.5, 5, 15, 30 and 60 minutes and added to plates. The reaction was stopped by the addition of 5 volumes of cold acetonitrile and a solution containing 100 nM alprazolam, 200 nM caffeine and 100 nM tolbutamide.
Sampling. The plates containing the terminated reactions were centrifuged at 4000 rpm for 30 minutes. Supernatant of each compound (40 μL) was transferred into a 96-well analysis plate.
Four compound samples are pooled together into one cassette and diluted by adding 160 μL of pure water. All incubations are performed in duplicate.
Analysis and Data Processing. Quantitative LC-MS analysis is performed, and peak areas are determined from extracted ion chromatograms. Percent parent remaining was calculated from peak area of TC or PC. The slope value, k, is determined by linear regression of the natural logarithm of percent parent remaining vs. incubation time curve. […]
Background: Liver microsomes are vesicles of endoplasmic reticulum, rich in cytochrome P450 enzymes.
In turn, `Cc1cc([C@@H](C)Oc2ccc(Cl)nc2S(N)(=O)=O)c2oc(-c3cnn(C)c3)c(Cl)c(=O)c2c1` (single isomer, unassigned) [Example 111C] gave a microsomal CLint at 1 μM below 50 µL/min/mg. As for `Cc1cc([C@@H](C)Oc2ccc(Cl)nc2-c2noc(=O)[nH]2)c2oc(-c3cnc4scnc4c3)c(C)c(=O)c2c1` [Example 1B, 3-[6-Chloro-3-[(1R)-1-(3,6-dimethyl-4-oxo-2-thiazolo[5,4-b]pyridin-6-yl-chromen-8-yl)ethoxy]-2-pyridyl]-4H-1,2,4-oxadiazol-5-one], the microsomal CLint at 1 μM was below 50 µL/min/mg.

For `Cc1cc([C@@H](C)Oc2ccc(Cl)nc2S(N)(=O)=O)c2oc(-c3ccc4nn(C)cc4n3)c(C)c(=O)c2c1` [Example 5B, 6-Chloro-3-[(1R)-1-[3,6-dimethyl-2-(2-methylpyrazolo[4,3-b]pyridin-5-yl)-4-oxo-chromen-8-yl]ethoxy]pyridine-2-sulfonamide], the microsomal CLint at 1 μM was below 50 µL/min/mg. On the same count and under the same terms, the result for `Cc1cc([C@@H](C)Oc2ccc(Cl)nc2S(N)(=O)=O)c2oc(-c3ccn[nH]3)c(C)c(=O)c2c1` [Example 8C, 6-Chloro-3-[(1R)-1-[3,6-dimethyl-4-oxo-2-(1H-pyrazol-5-yl)chromen-8-yl]ethoxy]pyridine-2-sulfonamide] reads below 50 µL/min/mg; that for `Cc1cc([C@@H](C)Oc2cccnc2C(N)=O)c2oc(-c3ccc4nn(C)cc4c3)c(C)c(=O)c2c1` [Example 10A, 3-[(1R)-1-[3,6-Dimethyl-2-(2-methylindazol-5-yl)-4-oxo-chromen-8-yl]ethoxy]pyridine-2-carboxamide], below 50 µL/min/mg. The same measure, in the same setting: the result for `Cc1cc([C@@H](C)Oc2ccc(Cl)nc2S(N)(=O)=O)c2oc(-c3cnc(C)o3)c(C)c(=O)c2c1` [Example 10C, 6-Chloro-3-[(1R)-1-[3,6-dimethyl-2-(2-methyloxazol-5-yl)-4-oxo-chromen-8-yl]ethoxy]pyridine-2-sulfonamide] reads below 50 µL/min/mg. `Cc1cc([C@@H](C)Oc2ccc(Cl)nc2C(N)=O)c2oc(-c3cnn4cccnc34)c(C)c(=O)c2c1` [Example 16B, 6-Chloro-3-[(1R)-1-(3,6-dimethyl-4-oxo-2-pyrazolo[1,5-a]pyrimidin-3-yl-chromen-8-yl)ethoxy]pyridine-2-carboxamide]: the microsomal CLint at 1 μM is below 50 µL/min/mg. Still for that read-out and setting: then `Cc1cc([C@@H](C)Oc2ccc(Cl)nc2-c2noc(=O)[nH]2)c2oc(-c3ccc4nn(C)cc4c3)c(C)c(=O)c2c1` [Example 18A, 3-[6-Chloro-3-[(1R)-1-[3,6-dimethyl-2-(2-methylindazol-5-yl)-4-oxo-chromen-8-yl]ethoxy]-2-pyridyl]-4H-1,2,4-oxadiazol-5-one], with below 50 µL/min/mg; and `Cc1cc([C@@H](C)Oc2ccc(F)nc2C(N)=O)c2oc(-c3ccc4nn(C)cc4c3)cc(=O)c2c1` [Example 19B, 6-Fluoro-3-[(1R)-1-[6-methyl-2-(2-methylindazol-5-yl)-4-oxo-chromen-8-yl]ethoxy]pyridine-2-carboxamide], with below 50 µL/min/mg; and `Cc1cc([C@@H](C)Oc2ccc(Cl)nc2S(N)(=O)=O)c2oc(-c3cnn(C)c3C#N)c(C)c(=O)c2c1` [Example 21C, 6-Chloro-3-[(1R)-1-[2-(5-cyano-1-methyl-pyrazol-4-yl)-3,6-dimethyl-4-oxo-chromen-8-yl]ethoxy]pyridine-2-sulfonamide], with below 50 µL/min/mg. `Cc1cc([C@@H](C)Oc2cccnc2C(=O)NOC(C)(C)C)c2oc(-c3ccc4nn(C)cc4c3)c(C)c(=O)c2c1` [Example 24A, N-tert-Butoxy-3-[(1R)-1-[3,6-dimethyl-2-(2-methylindazol-5-yl)-4-oxo-chromen-8-yl]ethoxy]pyridine-2-carboxamide] registered a microsomal CLint at 1 μM below 50 µL/min/mg. Still for that read-out and setting: then `Cc1cc([C@@H](C)Oc2ccc(Cl)nc2S(N)(=O)=O)c2oc(-c3cccc(C#N)c3)c(C)c(=O)c2c1` [Example 24C, 6-Chloro-3-[(1R)-1-[2-(3-cyanophenyl)-3,6-dimethyl-4-oxo-chromen-8-yl]ethoxy]pyridine-2-sulfonamide], with below 50 µL/min/mg; and `Cc1cc([C@@H](C)Oc2ccc(Cl)nc2S(N)(=O)=O)c2oc(-c3ccc(C#N)cc3)c(C)c(=O)c2c1` [Example 25C, 6-Chloro-3-[(1R)-1-[2-(4-cyanophenyl)-3,6-dimethyl-4-oxo-chromen-8-yl]ethoxy]pyridine-2-sulfonamide], with below 50 µL/min/mg; and `Cc1cc([C@@H](C)Oc2ccc(Cl)nc2C(=O)NOC(C)(C)C)c2oc(-c3ccc4nn(C)cc4c3)c(C)c(=O)c2c1` [Example 27A, N-tert-Butoxy-6-chloro-3-[(1R)-1-[3,6-dimethyl-2-(2-methylindazol-5-yl)-4-oxo-chromen-8-yl]ethoxy]pyridine-2-carboxamide], with below 50 µL/min/mg.

`Cc1cc([C@@H](C)Oc2ccc(F)c(F)c2C(N)=O)c2oc(-c3cnn(C)c3)c(C)c(=O)c2c1` [Example 31A, 6-[(1R)-1-[3,6-Dimethyl-2-(1-methylpyrazol-4-yl)-4-oxo-chromen-8-yl]ethoxy]-2,3-difluoro-benzamide] gave a microsomal CLint at 1 μM below 50 µL/min/mg. The same measure, in the same setting: then `Cc1cc([C@@H](C)Oc2ccc(Cl)nc2S(N)(=O)=O)c2oc(-c3cncnc3)c(C)c(=O)c2c1` [Example 38A, 6-Chloro-3-[(1R)-1-(3,6-dimethyl-4-oxo-2-pyrimidin-5-yl-chromen-8-yl)ethoxy]pyridine-2-sulfonamide], with below 50 µL/min/mg. Compound `Cc1cc([C@@H](C)Oc2ccc(Cl)nc2C(N)=O)c2oc(-c3cnn4ncccc34)c(C)c(=O)c2c1` [Example 39C, 6-Chloro-3-[(1R)-1-(3,6-dimethyl-4-oxo-2-pyrazolo[1,5-b]pyridazin-3-yl-chromen-8-yl)ethoxy]pyridine-2-carboxamide] had a microsomal CLint at 1 μM below 50 µL/min/mg. The compound `Cc1cc([C@@H](C)Oc2ccc(Cl)nc2-c2noc(=O)[nH]2)c2oc(-c3cnn4c3COCC4)c(C)c(=O)c2c1` [Example 41A, 3-[6-Chloro-3-[(1R)-1-[2-(6,7-dihydro-4H-pyrazolo[5,1-c][1,4]oxazin-3-yl)-3,6-dimethyl-4-oxo-chromen-8-yl]ethoxy]-2-pyridyl]-4H-1,2,4-oxadiazol-5-one] showed a microsomal CLint at 1 μM below 50 µL/min/mg.

The series is the same for the next values; noted with them: pH 7.4; human liver microsomes 0.5 mg/mL, 1 μM compound; read-out: intrinsic clearance in human MICS.
`Cc1cc([C@@H](C)Oc2cccnc2-c2noc(=O)[nH]2)c2oc(-c3ccccc3)c(C)c(=O)c2c1` [Example 3, 3-[3-[(1R)-1-(3,6-Dimethyl-4-oxo-2-phenyl-chromen-8-yl)ethoxy]-2-pyridyl]-4H-1,2,4-oxadiazol-5-one]: the microsomal CLint at 1 μM was below 50 µL/min/mg. Still for that read-out and setting: then `Cc1cc([C@@H](C)Oc2ccccc2-c2noc(=O)[nH]2)c2oc(-c3ccccc3)c(C)c(=O)c2c1` [Example 4, 3-[2-[(1R)-1-(3,6-Dimethyl-4-oxo-2-phenyl-chromen-8-yl)ethoxy]phenyl]-4H-1,2,4-oxadiazol-5-one], with below 50 µL/min/mg.

Take `Cc1cc([C@@H](C)Oc2cccc(F)c2-c2noc(=O)[nH]2)c2oc(-c3ccccc3)c(C)c(=O)c2c1` [Example 5, 3-[2-[(1R)-1-(3,6-Dimethyl-4-oxo-2-phenyl-chromen-8-yl)ethoxy]-6-fluoro-phenyl]-4H-1,2,4-oxadiazol-5-one]: the microsomal CLint at 1 μM was below 50 µL/min/mg. `Cc1cc([C@@H](C)Oc2ccc(Cl)nc2C(=O)NS(C)(=O)=O)c2oc(-c3ccccc3)c(C)c(=O)c2c1` [Example 6, 6-Chloro-3-[(1R)-1-(3,6-dimethyl-4-oxo-2-phenyl-chromen-8-yl)ethoxy]-N-methylsulfonyl-pyridine-2-carboxamide]: the microsomal CLint at 1 μM was below 50 µL/min/mg.
